Results on 20 compounds are retold here after patent US8962630B2, “Pyrrolopyrimidine compounds and their uses” (Novartis AG, priority 2008, dated 2015).

Common to all, as to type: biochemical
One experiment deals with CDK2/cyclin A (Homo sapiens (Human), UniProt P24941). Description: CDK2/Cyclin A enzymatic activity assay (IMAP-FP). The note with it: Table 2; read-out: CDK2.
The next experiment concerns the target CDK1/cyclin B (Homo sapiens (Human), UniProt P06493). The experiment in a line: CDK1/Cyclin B enzymatic activity assay (IMAP-FP). The note with it: Table 2; 20 μM ATP; read-out: CDK1. The source says:
A 384-well microtiter IMAP-FPT™ (Molecular Devices Trade Mark Technology) endpoint assay was used for CDK1/cyclin B kinase activity measurements. The same assay was used for IC50 determination of small molecule inhibitors.

For the next experiment, the target named is CDK4/cyclin D1 (Homo sapiens (Human), UniProt P11802). The experiment in a line: CDK4/Cyclin D1 enzymatic activity assay (Lance TR-FRET). The note with it: Table 2; 3 μM ATP; read-out: CDK4. The protocol:
A 384-well microtiter Lance TR-FRET (time-resolved-fluorescence energy transfer) endpoint assay was used for CDK4/cyclin D1 kinase activity measurements. The same assay was used for IC50 determination of small molecule inhibitors. In general, the kinase reactions were carried out in 30 μL volumes in the reaction solution containing the following: 2 uL compound (in […]), 18 uL CDK4/cyclin D1 in Assay Buffer (50 mM HEPES, pH 7.5, 5 mM MgCl2, 2 mM MnCl2, 1 mM DTT, 0.05% BSA, 0.02% Tween-20), 10 uL of the mixture of pRb152 and ATP. The final reaction mixture contains compound (inhibitor) with the concentration varying from 0.005-10 μM, 2% DMSO, 0.3 nM CDK4/cyclin D1, 175 nM pRb152, and 3 μM ATP (Amersham Pharmacia, Cat. No. 27-2056-01). All reactions were run at room temperature in 384-well white flat-bottom OptiPlates (Perkin Elmer, Cat. No. 6007290) for 60 min then were quenched by the addition of 10 μL of 120 mM EDTA. The signals were captured by the addition of 40 μL of the Detection Solution containing the following: Detection Buffer (50 mM HEPES, pH 7.5, 30 mM EDTA, 0.1% Triton x-100, 0.05% BSA), 70 ng/mL anti-phospho-pRb(S780) (Cell Signaling Technology, Cat. No. 9307S), 1 nM Lance Eu-W1024-Rabbit anti-IgG (Perkin Elmer, Cat. No. AD0082), and 20 nM SureLight™ Allophycocyanin-Streptavidin (Perkin Elmer, Cat. No. CR130-100). The resulted solutions were incubated at room temperature for 2 hours before read on the Evision Multilabel Reader (Perkin Elmer, Envision 2102-0010).
CDk4/cyclin D1 recombinant protein used in the enzymatic activity assay was prepared by coexpressing pDEST10-CDK4 (N-terminal His6) and pFastBacDual-GST-hCyclinDl viruses in Sf21 cells.

Molecules are shown by their SMILES. Some results are limits rather than exact numbers.

CDK4/cyclin D1, sequence (P11802 whole entry): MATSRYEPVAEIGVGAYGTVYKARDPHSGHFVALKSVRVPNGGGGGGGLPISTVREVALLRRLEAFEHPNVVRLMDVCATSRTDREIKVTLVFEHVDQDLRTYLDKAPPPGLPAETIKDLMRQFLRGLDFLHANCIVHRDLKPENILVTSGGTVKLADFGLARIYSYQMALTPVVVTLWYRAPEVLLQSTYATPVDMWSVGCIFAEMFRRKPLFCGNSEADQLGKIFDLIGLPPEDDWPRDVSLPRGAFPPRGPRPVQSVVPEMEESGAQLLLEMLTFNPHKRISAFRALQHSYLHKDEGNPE
CDK4/cyclin D1, sequence (P24385 whole entry partner): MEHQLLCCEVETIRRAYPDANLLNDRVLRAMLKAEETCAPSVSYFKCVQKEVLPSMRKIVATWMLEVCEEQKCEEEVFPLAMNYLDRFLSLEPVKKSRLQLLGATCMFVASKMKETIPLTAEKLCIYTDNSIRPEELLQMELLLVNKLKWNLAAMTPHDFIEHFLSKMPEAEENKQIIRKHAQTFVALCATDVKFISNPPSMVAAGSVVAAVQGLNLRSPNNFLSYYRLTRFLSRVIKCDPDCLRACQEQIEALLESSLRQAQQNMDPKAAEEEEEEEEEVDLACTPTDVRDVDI
CDK1/cyclin B, sequence (P06493 whole entry, species assumed): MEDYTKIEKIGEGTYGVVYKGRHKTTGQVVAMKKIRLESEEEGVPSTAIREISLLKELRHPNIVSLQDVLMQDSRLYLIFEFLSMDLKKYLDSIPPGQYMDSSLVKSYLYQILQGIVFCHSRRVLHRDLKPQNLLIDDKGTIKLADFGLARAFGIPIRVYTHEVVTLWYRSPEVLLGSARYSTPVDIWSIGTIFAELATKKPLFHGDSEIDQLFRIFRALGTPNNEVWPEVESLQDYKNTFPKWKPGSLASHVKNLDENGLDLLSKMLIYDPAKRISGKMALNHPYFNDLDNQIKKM
CDK1/cyclin B, sequence (P14635 whole entry partner, species assumed): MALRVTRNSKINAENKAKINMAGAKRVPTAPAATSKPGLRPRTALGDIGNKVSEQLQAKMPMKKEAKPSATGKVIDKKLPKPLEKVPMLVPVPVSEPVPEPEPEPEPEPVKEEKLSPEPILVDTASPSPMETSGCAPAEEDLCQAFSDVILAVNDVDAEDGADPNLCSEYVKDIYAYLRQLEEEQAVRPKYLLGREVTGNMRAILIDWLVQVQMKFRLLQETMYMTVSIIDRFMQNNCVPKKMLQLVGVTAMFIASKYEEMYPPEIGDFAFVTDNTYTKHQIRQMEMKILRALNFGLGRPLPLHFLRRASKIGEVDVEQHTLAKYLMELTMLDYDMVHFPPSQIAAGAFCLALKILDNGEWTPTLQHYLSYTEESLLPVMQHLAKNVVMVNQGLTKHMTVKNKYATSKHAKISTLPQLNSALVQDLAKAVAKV

As to `CN(C)C1CCN(c2ccc(Nc3ncc4cc(C#N)n(C5CCCC5)c4n3)nc2)CC1` [Example 47, 7-Cyclopentyl-2-((4-dimethylaminopiperidin)-1-yl-pyridin-2-ylamino)-7H-pyrrolo[2,3-d]pyrimidine-6-carbonitrile], the IC50 at CDK2/cyclin A is 8300 nM; at CDK1/cyclin B it was 2600 nM; on CDK4/cyclin D1 it was 1 to 10 nM.
For `CN(C)C(=O)c1cc2cnc(Nc3ccc(CN4CCN(S(C)(=O)=O)CC4)cn3)nc2n1C1CCCC1` [Example 34, 7-Cyclopentyl-2-[5-(4-methanesulfonyl-piperazin-1-ylmethyl)-pyridin-2-ylamino]-7H-pyrrolo[2,3-d]pyrimidine-6-carboxylic acid dimethylamide] the same measures were above 15000 nM, above 15000 nM and 100 to 1000 nM.
In the case of `CN(C)C(=O)c1cc2cnc(Nc3ccc(N4CCNCC4)nn3)nc2n1C1CCCC1` [Example 67, 7-Cyclopentyl-2-(6-piperazin-1-yl-pyridazin-3-ylamino)-7H-pyrrolo[2,3-d]pyrimidine-6-carboxylic acid dimethylamide], the results for the IC50 on CDK2/cyclin A, at CDK1/cyclin B and on CDK4/cyclin D1 were above 15000 nM, above 15000 nM and 10 to 100 nM, respectively.
`CN(C)C(=O)c1cc2cnc(Nc3ccc(N(C)CCO)cn3)nc2n1C1CCCC1` [Example 83, 7-Cyclopentyl-2-{5-[(2-hydroxy-ethyl)-methyl-amino]-pyridin-2-ylamino}-7H-pyrrolo[2,3-d]pyrimidine-6-carboxylic acid dimethylamide]: the IC50 on CDK2/cyclin A was above 15000 nM; at CDK1/cyclin B it was above 15000 nM; at CDK4/cyclin D1, 100 to 1000 nM.
Turning to `CC(C)CN1CCN(c2ccc(Nc3ncc4cc(C(=O)N(C)C)n(C5CCCC5)c4n3)nc2)CC1` [Example 92, 7-Cyclopentyl-2-[5-(4-isobutyl-piperazin-1-yl)-pyridin-2-ylamino]-7H-pyrrolo[2,3-d]pyrimidine-6-carboxylic acid dimethylamide], the IC50 on CDK2/cyclin A was above 15000 nM; at CDK1/cyclin B, above 15000 nM; on CDK4/cyclin D1 it was 1 to 10 nM.
`C[C@H]1CN(c2ccc(Nc3ncc4cc(C(=O)N(C)C)n(C5CCCC5)c4n3)nc2)CCN1C(=O)OC(C)(C)C` [Example 31, (S)-4-[6-(7-Cyclopentyl-6-dimethylcarbamoyl-7H-pyrrolo[2,3-d]pyrimidin-2-ylamino)-pyridin-3-yl]-2-methyl-piperazine-1-carboxylic acid tert-butyl ester]: the IC50 on CDK2/cyclin A was above 15000 nM; at CDK1/cyclin B it was above 15000 nM; at CDK4/cyclin D1, 100 to 1000 nM.
On to `CN(C)C(=O)c1cc2cnc(Nc3ccc(N4CC[C@H](O)C4)cn3)nc2n1C1CCCC1` [Example 39, 7-Cyclopentyl-2-[5-((S)-3-hydroxy-pyrrolidin-1-yl)-pyridin-2-ylamino]-7H-pyrrolo[2,3-d]pyrimidine-6-carboxylic acid dimethylamide], for which the values for the IC50 on CDK2/cyclin A, at CDK1/cyclin B and at CDK4/cyclin D1 were above 15000 nM, above 15000 nM and 10 to 100 nM, respectively.
Turning to `CN(C)C(=O)c1cc2cnc(Nc3ccc(N4CCN(C(=O)N5CCOCC5)CC4)cn3)nc2n1C1CCCC1` [Example 38, 7-Cyclopentyl-2-{5-[4-(morpholine-4-carbonyl)-piperazin-1-yl]-pyridin-2-ylamino}-7H-pyrrolo[2,3-d]pyrimidine-6-carboxylic acid dimethylamide], the results for the IC50 on CDK2/cyclin A, at CDK1/cyclin B and on CDK4/cyclin D1 were above 15000 nM, above 15000 nM and 10 to 100 nM, respectively.
With `CNC(=O)c1cc2cnc(Nc3ccc(N4CCN(C(C)C)CC4)cn3)nc2n1C1CCCC1` [Example 51, 7-Cyclopentyl-2-[5-(4-isopropyl-piperazin-1-yl)-pyridin-2-ylamino]-7H-pyrrolo[2,3-d]pyrimidine-6-carboxylic acid methylamide], the IC50 on CDK2/cyclin A was above 15000 nM; on CDK1/cyclin B, above 15000 nM; on CDK4/cyclin D1 it was 10 to 100 nM.
Consider `CN(C)C(=O)c1cc2cnc(Nc3ccc(N4CCN(CCC#N)CC4)cn3)nc2n1C1CCCC1` [Example 9, 2-{5-[4-(2-Cyano-ethyl)-piperazin-1-yl]-pyridin-2-ylamino}-7-cyclopentyl-7H-pyrrolo[2,3-d]pyrimidine-6-carboxylic acid dimethylamide], for which the IC50 at CDK2/cyclin A was above 15000 nM; on CDK1/cyclin B, above 15000 nM; on CDK4/cyclin D1, 10 to 100 nM.
With `CN(C)C(=O)c1cc2cnc(Nc3ccc(CN4CCC(O)CC4)cn3)nc2n1C1CCCC1` [Example 76, 7-Cyclopentyl-2-[5-(4-hydroxy-piperidin-1-ylmethyl)-pyridin-2-ylamino]-7H-pyrrolo[2,3-d]pyrimidine-6-carboxylic acid dimethylamide], the IC50 was above 15000 nM on CDK2/cyclin A, above 15000 nM at CDK1/cyclin B and 10 to 100 nM on CDK4/cyclin D1.
As for `CN(C)C(=O)c1cc2cnc(Nc3ccc(CN4CCNCC4)cn3)nc2n1C1CCCC1` [Example 42, 7-Cyclopentyl-2-(5-piperazin-1-ylmethyl-pyridin-2-ylamino)-7H-pyrrolo[2,3-d]pyri-midine-6-carboxylic acid dimethylamide], the IC50 on CDK2/cyclin A was above 15000 nM; at CDK1/cyclin B it was above 15000 nM; at CDK4/cyclin D1, 10 to 100 nM.
For the compound `CN(C)C(=O)c1cc2cnc(Nc3ccc(N4CCN(C(=O)C5CCCCC5)CC4)cn3)nc2n1C1CCCC1` [Example 23, 2-[5-(4-Cyclohexanecarbonyl-piperazin-1-yl)-pyridin-2-ylamino]-7-cyclopentyl-7H-pyrrolo[2,3-d]pyrimidine-6-carboxylic acid dimethylamide], the IC50 at CDK2/cyclin A was above 15000 nM; on CDK1/cyclin B it was above 15000 nM; on CDK4/cyclin D1, 10 to 100 nM.
Turning to `CN(C)C(=O)c1cc2cnc(Nc3ccc(N4CCN(CCF)CC4)cn3)nc2n1C1CCCC1` [Example 86, 7-Cyclopentyl-2-{5-[4-(2-fluoro-ethyl)-piperazin-1-yl]-pyridin-2-ylamino}-7H-pyrrolo[2,3-d]pyrimidine-6-carboxylic acid dimethylamide], the IC50 at CDK2/cyclin A was above 15000 nM; at CDK1/cyclin B, above 15000 nM; on CDK4/cyclin D1, 10 to 100 nM.
On to `CN(C)C(=O)c1cc2cnc(Nc3ccccn3)nc2n1C1CCC(C)(O)CC1` (centres unmarked) [Example 40, 7-(4-Hydroxy-4-methyl-cyclohexyl)-2-(pyridin-2-ylamino)-7H-pyrrolo[2,3-d]pyrimidine-6-carboxylic acid dimethylamide], for which the IC50 is above 15000 nM on CDK2/cyclin A, above 15000 nM at CDK1/cyclin B and 100 to 1000 nM at CDK4/cyclin D1.
As to `CN(C)C(=O)c1cc2cnc(Nc3ccc(C(=O)N4CCN(CCO)CC4)cn3)nc2n1C1CCCC1` [Example 96, 7-Cyclopentyl-2-{5-[4-(2-hydroxy-ethyl)-piperazine-1-carbonyl]-pyridin-2-ylamino}-7H-pyrrolo[2,3-d]pyrimidine-6-carboxylic acid dimethylamide], the IC50 on CDK2/cyclin A was above 15000 nM; at CDK1/cyclin B, above 15000 nM; on CDK4/cyclin D1, 10 to 100 nM.
As for `COCCN1CCN(Cc2ccc(Nc3ncc4cc(C(=O)N(C)C)n(C5CCCC5)c4n3)nc2)CC1` [Example 77, 7-Cyclopentyl-2-{5-[4-(2-methoxy-ethyl)-piperazin-1-ylmethyl]-pyridin-2-ylamino}-7H-pyrrolo[2,3-d]pyrimidine-6-carboxylic acid dimethylamide], the IC50 at CDK2/cyclin A is above 15000 nM; at CDK1/cyclin B it was above 15000 nM; at CDK4/cyclin D1, 10 to 100 nM.
With `CCC(C)CN1CCN(c2ccc(Nc3ncc4cc(C(=O)N(C)C)n(C5CCCC5)c4n3)nc2)CC1` (centres unmarked) [Example 99, 7-Cyclopentyl-2-{5-[4-(2-methyl-butyl)-piperazin-1-yl]-pyridin-2-ylamino}-7H-pyrrolo[2,3-d]pyrimidine-6-carboxylic acid dimethylamide], the IC50 is above 15000 nM at CDK2/cyclin A, above 15000 nM on CDK1/cyclin B and 10 to 100 nM on CDK4/cyclin D1.
Consider `CN(C)C(=O)c1cc2cnc(Nc3ccc(CN4CC5CCC(C4)N5)cn3)nc2n1C1CCCC1` [Example 73, 7-Cyclopentyl-2-[5-(3,8-diaza-bicyclo[3.2.1]oct-3-ylmethyl)-pyridin-2-ylamino]-7H-pyrrolo[2,3-d]pyrimidine-6-carboxylic acid dimethylamide], for which the IC50 at CDK4/cyclin D1 fell in the range of 10 to 100 nM.
The same measure, in the same setting: then `CN(C)C(=O)c1cc2cnc(Nc3ccc(N4CCNCC4=O)cn3)nc2n1C1CCCC1` [Example 109, 7-cyclopentyl-2-[5-(2-oxopiperazin-1-yl)pyridin-2-ylamino]-7H-pyrrolo[2,3-d]pyrimidine-6-carboxylic acid dimethylamide], with 100 to 1000 nM.
